Target: T1, AII receptors (Cavia porcellus, UniProt Q9WV26)
T1 construct: from tissue; host or cells: guinea pig adrenal gland, cell surface membrane fraction
T1 sequence (Q9WV26 1-359): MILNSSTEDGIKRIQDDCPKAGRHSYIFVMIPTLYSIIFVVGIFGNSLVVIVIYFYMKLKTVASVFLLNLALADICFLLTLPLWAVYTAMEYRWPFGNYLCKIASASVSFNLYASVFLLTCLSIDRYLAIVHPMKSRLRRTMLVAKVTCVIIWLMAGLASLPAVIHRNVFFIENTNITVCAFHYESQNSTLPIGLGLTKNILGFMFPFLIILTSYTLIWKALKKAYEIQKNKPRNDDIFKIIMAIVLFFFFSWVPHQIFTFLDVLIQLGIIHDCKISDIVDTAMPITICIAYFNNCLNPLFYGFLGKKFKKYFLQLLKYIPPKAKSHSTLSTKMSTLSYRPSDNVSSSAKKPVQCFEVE
Assay: Test A: displacement of radiolabelled AII binding from guinea pig adrenal gland membrane fraction
Settings: guinea pig adrenal gland membranes; read-out: IC50 (concentration for 50% displacement of radiolabelled AII binding)
Protocol: This in vitro procedure involves the incubation of the test compound initially at a concentration of 100 micromolar (or less) in a buffered mixture containing fixed concentrations of radiolabelled AII and a cell surface membrane fraction prepared from a suitable angiotensin target tissue. In this test, the source of cell surface membranes is the guinea pig adrenal gland which is well known to respond to AII. Interaction of the radiolabelled AII with its receptors (assessed as radiolabel bound to the particulate membrane fraction following removal of unbound radiolabel by a rapid filtration procedure such as is standard in such studies) is antagonized by compounds which also bind to the membrane receptor sites and the degree of antagonism (observed in the test as displacement of membrane-bound radioactivity) is determined readily by comparing the receptor-bound radioactivity in the presence of the test compound at the specified test concentration with a control value determined in the absence of the test compound. Using this procedure compounds showing at least 50% displacement of radiolabelled AII binding at a concentration of 10^4 M are retested at lower concentrations to determine their potency. […]

- IC50: 270 nM
Structure (SMILES): CCc1cc2c(ccc(=O)n2Cc2ccc(OC(C(=O)O)c3ccccc3)cc2)c(CC)n1 (stereo not shown) [Example 2]

From patent publication US5373015A, “Fused pyridine derivatives useful as angiotensin II antagonists” (Imperial Chemical Industries PLC, priority 1991, dated 1994)
